Measured values from US20120070377A1, “COMPOUNDS AND BIOLOGICAL MATERIALS AND USES THEREOF” (priority 2009, published 2012).

Assays:
[1] = Biodistribution and blood clearance of 125I-radiolabelled photosensitisers and PICs in SKOV3 tumour mice; format: in vivo, BALB/c nude mice; conditions: mouse, in vivo, iv
Method: 0.1 mg of photosensitiser was dissolved in 0.5 ml PBS. Radiolabelled Iodine (Na^125I, ICN chemicals) was added to 0.1 ml of PBS in Iodogen-coated tubes (Pierce chemicals) and allowed to activate. The activated iodine-125 was transferred to the photosensitiser and allowed to react for 5-10 minutes at room temperature. The radiolabelled photosensitiser was separated from free iodine on a mini silica gel column eluting with 100% PBS to remove the iodinating agent followed by a gradual switch from 10% MeOH/PBS to 100% MeOH with the radiolabelled photosenstiser eluting with 10% MeOH/chloroform. The radiolabelled solutions of the photosensitiser was allowed to air-dry and re-suspended in PBS containing 2% DMSO.
Female BALB/c nude mice (aged 6-8 weeks old) were implanted with 10^7 SKOV3 tumour cells mixed in 0.1 ml of ice-cold matrigel subcutaneously and the tumours were allowed to grow for 3-6 weeks as xenografts. Mice were maintained in IVC cages (individually-vented cages) in a clean room. Samples were injected in a volume of 0.1 ml, intravenously via the lateral tail vein and the mice were maintained in low light with full food and water (irradiated). At various time points (1-24 hr), mice were culled by cardiac puncture under terminal anesthesia and blood and tissues collected. All the tissues were counted for radioactivity by gamma counting and weighed.
The results are shown as a percentage of radioactive material injected per gram of tissue.
The PS (PPa and PPa-PEG) were chemically coupled to C6 scFv, radiolabelled with iodogen as before, but dialysed against 3×5 L of PBS to remove the free iodine and injected into BALB/c nude mice with SKOV3 tumours as above. Tissues were dissected and counted as above.

SKOV3 cells = experiment: Confocal fluorescence microscopy, intracellular localisation with organelle co-stains; format: cell-based, human
Method: Imaging took place at the FILM Imperial College London on a LEICA SP5 MP inverted confocal microscope, at 37° C. and under a CO2 supplemented atmosphere. The water objective (63×) was used in all the experiments. Images were processed using the Leica software, Image J and Powerpoint.
Note: in any experiment where a photosensitiser is used on cells, the experiment is done under subdued lighting exposing the cells to as little light as possible and incubating wrapped in foil. Following addition of PS to cells, cells were no longer observed on the microscope.
Cells were plated on a Labt-Tek® 8 Chambered #1.0 Borosilicate Coverglass System. With some cell lines, it is often useful to use an attachment factor (200 μl, 30 mins, 37° C.) to coat the wells first.
Photosensitiser solutions in phenol red free DMEM (10% FBS, 1% P/S, 0.5% DMSO) were prepared fresh and pre-warmed to 37° C. for 15 mins. The cells were washed with media (1×200 μl) before adding the solutions (200 μl per chamber). Unless otherwise stated, the cells were grown over 20 hrs in a humidified atmosphere (37° C., 5% CO2). The cells were washed (2×200 μl) with prewarmed phenol red free DMEM
Lysotracker® Green DND-26 was diluted according to manufacturers indications (1 mM stock) and further diluted to twice the working concentration in DMEM (10% FBS, 1% P/S). For use for single colour staining, this was diluted with DMEM (10% FBS, 1% P/S) to a final concentration of 1 μM. When it was used for two colour staining with photosensitisers, a 2 μM solution was twice diluted in photosensitiser solution to give a 1 μM final concentration.
The cells were incubated for 15 mins at 4° C. and a further 30 mins at 37° C. before replacing with fresh medium and imaging.
MitoTracker® Green was diluted according to manufacturers indications (1 mM stock) and further diluted to twice the working concentration in DMEM (10% FBS, 1% P/S). For use for single colour staining, this was diluted with DMEM (10% FBS, 1% P/S) to a final concentration of 1 μM. When it was used for two colour staining with photosensitisers, a 2 μM solution was twice diluted in photosensitiser solution to give a 1 μM final concentration.
The cells were incubated for 15 mins at 4° C. and a further 1 hr at 37° C. before replacing with fresh medium and imaging.
ER-Tracker™ Green (BODIPY® FL glibenclamide) was diluted according to manufacturer's indications (1 mM stock) and further diluted to twice the working concentration in HBSS buffer (+2% HEPES). For use for single colour staining, this was diluted with HBSS (+2% HEPES) to a final concentration of 3 μM. When it was used for two colour staining with photosensitisers, a 6 μM solution was twice diluted in photosensitiser solution to give a 3 μM final concentration.
The cells were incubated for 15 mins at 4° C. and a further 1 hr at 37° C. before replacing with fresh buffer and imaging.
Bodipy® FL C5-ceramide complexed to BSA was diluted according to manufacturer's indications (0.5 mM stock) and further diluted to twice the working concentration in HBSS buffer (+2 HEPES). For use for single colour staining, this was diluted with HBSS (+2% HEPES) to a final concentration of 5 μM. When it was used for two colour staining with photosensitisers, a 10 μM solution was twice diluted in photosensitiser solution to give a 5 μM final concentration. The cells were incubated for 15 mins at 4° C. and a further 30 mins at 37° C. before washing with cold HBSS/HEPES (3×100 μl) and replacing with either HBSS/HEPES or photosensitiser solution and incubating at 37° C. for a further 30 mins before replacing with fresh buffer and imaging.

[2] = Skin photosensitivity in a murine model; format: in vivo; conditions: laser on the skin after 1 hour, monitored over 4 days, scale of 1-4
Method: FIG. 24: Skin photosensitivity of Foscan compared to compound II. Photosensitisers were administered at t=0 hrs and a laser shone on the skin after 1 hour. The skin reaction was followed over time and the results were plotted according to the scale shown.
Skin photosensitivity is an important issue to be resolved in PDT. […] In a murine model, Foscan was administered at clinical doses (ref 109) and compared to compound 11 and a photo-immunoconjugate of compound 11. Skin photosensitivity was monitored over 4 days by observation according to a scale of 1-4 (FIG. 24).

Question: With `CCC1=C(C)c2cc3[nH]c(c(C)c3CC)c(C#CCCCC(=O)ON3C(=O)CCC3=O)c3nc(c4c5[nH]c(cc1n2)c(C)c5C(=O)C4)[C@@H](CCC(=O)OCc1cc(OCCOCCOCCOC)c(OCCOCCOCCOC)c(OCCOCCOCCOC)c1)[C@@H]3C` [compound 11, Meso 5-Ethynylhexanoyl succinimido ester pyropheophorbide a-3,4,5-(triethylene glycolmonomethylether) benzyl ester] as the compound, how does the blood clearance [1] read?
Answer: faster than PPa

Question: What about the “golgi localisation (co-localisation with Bodipy ceramide)” value (SKOV3 cells; FIG. 20) of the same compound?
Answer: significant yellow staining

Question: And the “mitochondrial localisation (co-localisation with Mito-tracker)” value (SKOV3 cells; FIG. 21)?
Answer: significant yellow staining

Question: What about the “lysosomal localisation (co-localisation with Lyso-tracker)” value (SKOV3 cells; FIG. 22) of the same compound?
Answer: some yellow staining

Question: And the “ER localisation (co-localisation with ER-tracker)” value (SKOV3 cells; FIG. 23)?
Answer: significant yellow staining

Question: What about the skin photosensitivity [2] of the same compound?
Answer: little or no skin sensitivity
